Measurements published in PMC337094 (BMC Biochemistry, 2003).

T1: riboflavin synthase of B. subtilis (Bacillus subtilis, UniProt P16440)
T1 sequence (P16440 1-215): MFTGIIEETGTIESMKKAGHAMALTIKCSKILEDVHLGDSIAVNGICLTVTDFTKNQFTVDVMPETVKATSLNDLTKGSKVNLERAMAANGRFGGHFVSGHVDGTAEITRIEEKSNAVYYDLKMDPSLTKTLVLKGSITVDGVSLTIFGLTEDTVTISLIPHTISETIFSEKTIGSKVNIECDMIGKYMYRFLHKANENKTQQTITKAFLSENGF

T2: riboflavin synthase of S. pombe (SSP-Rosy) (Schizosaccharomyces pombe, UniProt Q9Y7P0)
T2 sequence (Q9Y7P0 1-208): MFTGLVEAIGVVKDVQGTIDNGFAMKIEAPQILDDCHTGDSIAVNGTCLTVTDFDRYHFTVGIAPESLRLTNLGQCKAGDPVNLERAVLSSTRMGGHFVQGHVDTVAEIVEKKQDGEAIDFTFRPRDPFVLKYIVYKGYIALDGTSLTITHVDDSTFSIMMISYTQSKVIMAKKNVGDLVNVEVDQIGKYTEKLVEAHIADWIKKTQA

T3: riboflavin synthase of E. coli (Escherichia coli, UniProt P0AFU8)
T3 sequence (P0AFU8 1-213): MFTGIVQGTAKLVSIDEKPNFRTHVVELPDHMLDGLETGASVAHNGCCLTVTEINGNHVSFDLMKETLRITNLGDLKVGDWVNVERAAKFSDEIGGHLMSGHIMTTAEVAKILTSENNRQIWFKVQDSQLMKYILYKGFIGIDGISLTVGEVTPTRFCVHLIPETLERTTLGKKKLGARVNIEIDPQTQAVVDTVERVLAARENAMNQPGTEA

T4: recombinant N-terminal domain of E. coli riboflavin synthase (Escherichia coli, UniProt P0AFU8)
T4 sequence (P0AFU8 1-97): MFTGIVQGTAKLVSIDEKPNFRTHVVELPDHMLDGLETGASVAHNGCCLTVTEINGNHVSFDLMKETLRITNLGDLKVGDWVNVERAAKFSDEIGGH


Columns and labels:
[1] = target: lumazine protein of P. leiognathi (Photobacterium leiognathi, UniProt Q06877); assay: […] NMR protein perturbation; assay type: binding; conditions: 20 mM phosphate pH 7.0, 100 mM KCl, 10% D2O, 11 °C
[2] = target: T1, riboflavin synthase of B. subtilis; assay: […] NMR protein perturbation; assay type: binding; conditions: 20 mM phosphate pH 7.0, 100 mM KCl, 10% D2O, 11 °C
[3] = target: T2, riboflavin synthase of S. pombe (SSP-Rosy); assay: […] NMR protein perturbation; assay type: binding; conditions: 20 mM phosphate pH 7.0, 100 mM KCl, 10% D2O, 11 °C
[4] = target: T3, riboflavin synthase of E. coli; assay: […] NMR protein perturbation; assay type: binding; conditions: 20 mM phosphate pH 7.0, 100 mM KCl, 10% D2O, 11 °C
[5] = target: T4, recombinant N-terminal domain of E. coli riboflavin synthase; assay: […] NMR protein perturbation; assay type: binding; conditions: 20 mM phosphate pH 7.0, 100 mM KCl, 10% D2O, 11 °C
[6] = target: T2, riboflavin synthase of S. pombe (SSP-Rosy); assay: […] NMR displacement of compound 6a; assay type: binding; conditions: 20 mM phosphate pH 7.0, 100 mM KCl, 10% D2O, 11 °C; data not shown
AUC = target: the molecule itself; assay: AUC

Sequence of lumazine protein of P. leiognathi (Q06877 whole entry): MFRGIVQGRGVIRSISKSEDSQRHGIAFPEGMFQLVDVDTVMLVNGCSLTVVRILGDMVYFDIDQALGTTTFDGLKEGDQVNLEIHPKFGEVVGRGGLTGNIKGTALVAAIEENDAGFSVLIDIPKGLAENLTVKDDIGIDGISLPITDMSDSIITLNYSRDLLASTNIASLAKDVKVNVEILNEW

Molecule	19F NMR bound-ligand signal [1]	19F NMR bound-ligand signal [2]	19F NMR bound-ligand signal [3]	19F NMR bound-ligand signal [4]	19F NMR bound-ligand signal [5]	19F NMR displacement of compound 6a [6]	stoichiometry N (AUC)
O=c1[nH]c2c(c(=O)[nH]1)N=C(C(F)(F)F)[C@@](O)(C(F)(F)F)N2C[C@H](O)[C@H](O)[C@H](O)CO (single isomer, unassigned; epimer a) [6a, 6,7-bis(trifluoromethyl)-8-ribityllumazine hydrate (epimer A)]	show single lines for each trifluoromethyl group of bound Compound 6a	the riboflavin synthases (Figs. 6C,6D,6E) studied show multiple signals	riboflavin synthase of S. pombe binds epimer A	the riboflavin synthases (Figs. 6C,6D,6E) studied show multiple signals	show single lines for each trifluoromethyl group of bound Compound 6a		
Cc1cc2nc3c(=O)[nH]c(=O)nc-3n(C[C@H](O)[C@H](O)[C@H](O)CO)c2cc1C [compound 4, riboflavin]						could be displaced from S. pombe protein by addition of riboflavin	
O=c1[nH]c(=O)c2nc(C(F)(F)F)c(=O)n(C[C@H](O)[C@H](O)[C@H](O)CO)c2[nH]1 [compound 7, 6-trifluoromethyl-7-oxo-8-ribityllumazine]	lumazine protein (Fig. 5A)	B. subtilis (Fig. 5D) show similar signal multiplicities	in complex with riboflavin synthase of S. pombe shows four signals	The riboflavin synthases of E. coli (Fig. 5C)	show single and much narrower lines for the protein bound ligand		
Riboflavin synthase of Schizosaccharomyces pombe (enzyme, UniProt Q9Y7P0 1-208, looked up) MFTGLVEAIGVVKDVQGTIDNGFAMKIEAPQILDDCHTGDSIAVNGTCLTVTDFDRYHFTVGIAPESLRLTNLGQCKAGDPVNLERAVLSSTRMGGHFVQGHVDTVAEIVEKKQDGEAIDFTFRPRDPFVLKYIVYKGYIALDGTSLTITHVDDSTFSIMMISYTQSKVIMAKKNVGDLVNVEVDQIGKYTEKLVEAHIADWIKKTQA							3
